Assay results reported in patent publication US20150210641A1, “NOVEL CYTOCHROME P450 INHIBITORS AND THEIR METHOD OF USE” (CORTENDO AB (PUBL), priority 2014, published 2015).

Assays:
Type in all cases: cell-based
recombinant CYP-11 = biological target: T1, recombinant CYP-11 (Homo sapiens, UniProt P15538); test: Cyp11 assay: cortisol formation from 11-deoxycortisol in AD293 cells, LC/MS; conditions: AD293 cells stably over-expressing recombinant CYP-11; eight concentrations 10 μM to 4.5 nM
T1 construct: expressed in transfected cells
T1 sequence (P15538 25-503): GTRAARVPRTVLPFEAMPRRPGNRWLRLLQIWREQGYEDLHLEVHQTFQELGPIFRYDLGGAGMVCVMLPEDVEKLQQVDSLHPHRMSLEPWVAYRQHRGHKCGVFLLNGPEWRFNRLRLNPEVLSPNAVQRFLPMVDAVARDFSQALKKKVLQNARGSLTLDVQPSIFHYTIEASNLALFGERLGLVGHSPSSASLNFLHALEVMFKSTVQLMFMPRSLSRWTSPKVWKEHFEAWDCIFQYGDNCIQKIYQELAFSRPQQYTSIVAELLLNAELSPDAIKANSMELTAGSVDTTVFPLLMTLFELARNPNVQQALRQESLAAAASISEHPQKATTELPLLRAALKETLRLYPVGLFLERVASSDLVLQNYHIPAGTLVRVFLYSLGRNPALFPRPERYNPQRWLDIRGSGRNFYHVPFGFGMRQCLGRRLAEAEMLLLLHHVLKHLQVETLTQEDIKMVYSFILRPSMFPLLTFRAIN
Protocol: Cyp11 assay protocol: AD293 cells that stably over-express recombinant CYP-11 were seeded in 96 well plates coated with poly D-lysine (15,000 cell per well) and incubated at 37° C. for 24 hours in Dulbecco's Modified Eagle Medium (DMEM) with Fetal Bovine Serum (FBS) that is stripped of hormones by charcoal treatment. The media is then removed, the cells are washed once with Phosphate buffer saline solution, and 50 μL Dulbecco's Modified Eagle Medium (DMEM) with Fetal Bovine Serum (FBS) that is stripped of hormones by charcoal treatment is added. Compounds of the disclosure are then added to the wells in eight concentration spanning 10 μM to 4.5 nM, and the plates are incubated for an additional 60 minutes at 37° C. 11-deoxycortisol is then added ([…]) and the plates are incubated for an additional 12 hours at 37° C. After incubation, 50 uL of the supernatant (medium) is transferred into a fresh plate and 150 uL of an acetonitrile solution containing 200 ng/ml of Telmisartan is added. The sample is mixed and then placed in a centrifuge at 2000 rpm for 5 minutes. 100 uL of the supernatant is transferred into a fresh 96 well deep well plate, 100 uL of 1:1 methanol: water was added, the solution was mixed and then analyzed by LC/MS for the presence of cortisol using an Agilent 1200 RRLC/ABSCIEX API4000 LC-MS or Shimadzu Prominance/ABSCIEX API4000 LC-MS to determine IC50s of the compounds of the disclosure.

recombinant CYP-21 = biological target: T2, recombinant CYP-21 (Homo sapiens, UniProt P08686); test: Cyp21 assay: 11-deoxycortisol formation from 17-OH Progesterone in AD293 cells, LC/MS; conditions: AD293 cells stably over-expressing recombinant CYP-21; eight concentrations 10 μM to 4.5 nM
T2 construct: expressed in transfected cells
T2 sequence (P08686 1-495): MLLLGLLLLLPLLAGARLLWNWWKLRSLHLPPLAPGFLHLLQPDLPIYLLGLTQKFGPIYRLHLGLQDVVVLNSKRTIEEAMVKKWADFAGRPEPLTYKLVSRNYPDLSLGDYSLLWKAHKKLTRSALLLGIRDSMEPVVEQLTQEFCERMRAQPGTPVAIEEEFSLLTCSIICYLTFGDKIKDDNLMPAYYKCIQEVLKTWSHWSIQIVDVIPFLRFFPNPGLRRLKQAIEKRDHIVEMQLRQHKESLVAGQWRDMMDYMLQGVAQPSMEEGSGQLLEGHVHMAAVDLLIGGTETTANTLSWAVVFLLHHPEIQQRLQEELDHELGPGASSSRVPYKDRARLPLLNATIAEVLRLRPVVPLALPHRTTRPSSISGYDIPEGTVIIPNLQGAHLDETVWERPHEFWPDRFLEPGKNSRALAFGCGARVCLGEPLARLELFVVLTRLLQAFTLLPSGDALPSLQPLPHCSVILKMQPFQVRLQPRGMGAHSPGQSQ
Protocol: Cyp21 assay protocol: AD293 cells that stably over-express recombinant CYP-21 were seeded in 96 well plates coated with poly D-lysine (10,000 cell per well) and incubated at 37° C. for 24 hours in Dulbecco's Modified Eagle Medium (DMEM) with Fetal Bovine Serum (FBS) that is stripped of hormones by charcoal treatment. The media is then removed, the cells are washed once with Phosphate buffer saline solution, and 50 μL Dulbecco's Modified Eagle Medium (DMEM) with Fetal Bovine Serum (FBS) that is stripped of hormones by charcoal treatment is added. Compounds of the disclosure are then added to the wells in eight concentration spanning 10 μM to 4.5 nM, and the plates are incubated for an additional 60 minutes at 37° C. 17-OH Progesterone is then added ([…]) and the plates are incubated for an additional 45 minutes at 37° C. After incubation, 50 uL of the supernatant (medium) is transferred into a fresh plate and 150 uL of an acetonitrile solution containing 200 ng/ml of Telmisartan is added. The sample is mixed and then placed in a centrifuge at 2000 rpm for 5 minutes.

recombinant CYP-17 = biological target: T3, recombinant CYP-17 (Homo sapiens, UniProt P05093); test: Cyp17 assay: 3H-acetic acid release from [21-3H] 17α-hydroxyl-Pregnenolone in AD293 cells; conditions: AD293 cells stably over-expressing recombinant CYP-17; eight concentrations 10 μM to 4.5 nM
T3 construct: expressed in transfected cells
T3 sequence (P05093 1-508): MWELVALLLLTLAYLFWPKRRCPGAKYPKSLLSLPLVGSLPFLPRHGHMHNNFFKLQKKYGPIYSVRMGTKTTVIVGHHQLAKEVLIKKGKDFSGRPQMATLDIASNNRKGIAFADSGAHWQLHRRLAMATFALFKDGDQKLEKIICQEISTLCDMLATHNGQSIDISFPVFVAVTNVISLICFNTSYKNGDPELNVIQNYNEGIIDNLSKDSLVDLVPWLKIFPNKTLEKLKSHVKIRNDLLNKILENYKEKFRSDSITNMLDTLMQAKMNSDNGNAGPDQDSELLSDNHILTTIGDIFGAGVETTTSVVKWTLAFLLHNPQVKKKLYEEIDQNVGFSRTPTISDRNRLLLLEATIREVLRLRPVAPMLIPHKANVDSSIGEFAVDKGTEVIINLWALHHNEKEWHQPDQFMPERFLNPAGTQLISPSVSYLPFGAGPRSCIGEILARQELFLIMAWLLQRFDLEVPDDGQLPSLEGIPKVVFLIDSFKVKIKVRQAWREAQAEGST
Protocol: Cyp17 assay protocol: AD293 cells that stably over-express recombinant CYP-17 were seeded in 96 well plates coated with poly D-lysine (15,000 cell per well) and incubated at 37° C. for 24 hours in Dulbecco's Modified Eagle Medium (DMEM) with Fetal Bovine Serum (FBS) that is stripped of hormones by charcoal treatment. The media is then removed, the cells are washed once with Phosphate buffer saline solution, and 50 μL Dulbecco's Modified Eagle Medium (DMEM) with Fetal Bovine Serum (FBS) that is stripped of hormones by charcoal treatment is added. Compounds of the disclosure are then added to the wells in eight concentration spanning 10 μM to 4.5 nM, and the plates are incubated for an additional 60 minutes at 37° C. [21-^3H] 17α-hydroxyl-Pregnenolone is then added (50 nCi per well, 31.25 nM) and the plates are incubated for an additional 4 hours at 37° C. The media is then collected, 200 μL of chloroform is added, and the mixture is shaken for 1 hour. The aqueous layer is then separated and analyzed for the presence of ^3H-acetic acid using a Perkin Elmer Topcount NXT to determine IC50s of the compounds of the disclosure.

Compound | IC50 (recombinant CYP-11) [nM] | IC50 (recombinant CYP-21) [nM] | IC50 (recombinant CYP-17) [nM]
COc1cc(F)ccc1-c1ccc(C(F)c2ccncc2)cc1 (stereo not drawn) [Entry 1, 4-[Fluoro-(4′-fluoro-2′-methoxy-biphenyl-4-yl)-methyl]-pyridine] | ≥ 10000 | 1500 | 220
COc1cc(F)ccc1-c1ccc(C2(c3ccncc3)OCC(C)CO2)cc1 (stereo not drawn) [Entry 5, 4-[2-(4′-Fluoro-2′-methoxy-biphenyl-4-yl)-5-methyl-[1,3]dioxan-2-yl]-pyridine] | ≥ 10000 | 520 | 126
COc1cc(F)ccc1-c1ccc(C2(c3ccncc3)OCC(C)(C)CO2)cc1 [Entry 6, 4-[2-(4′-Fluoro-2′-methoxy-biphenyl-4-yl)-5,5-dimethyl-[1,3]dioxan-2-yl]-pyridine] | ≥ 10000 | 2200 | 600
COc1ccc(-c2ccc(C(F)c3ccncc3)cc2)cc1OC (stereo not drawn) [Entry 7] | ≥ 10000 | 940 | 14
COc1ccc(-c2ccc(C(F)(F)c3ccncc3)cc2)cc1OC [Entry 8] | ≥ 10000 | 408 | 34
COc1ccc(-c2ccc(C(c3ccncc3)N3CCCCC3)cc2)cc1OC (stereo not drawn) [Entry 9] | – | 1200 | 14
COc1ccc(-c2ccc(C(c3ccncc3)N3CCOCC3)cc2)cc1OC (stereo not drawn) [Entry 10, 4-((3′,4′-Dimethoxy-[1,1′-biphenyl]-4-yl)(pyridin-4-yl)methyl)morpholine] | – | 1800 | 10
COc1ccc(-c2ccc(C(c3ccncc3)N3CCN(C)CC3)cc2)cc1OC (stereo not drawn) [Entry 12, 1-((3′4′-dimethoxy-[1,1′-biphenyl]-4-yl)(pyridin-4-yl)methyl)-4-methylpiperazine] | – | ≥ 10000 | 77
COc1ccc(-c2ccc(C(OC(C)C)c3ccncc3)cc2)cc1OC (stereo not drawn) [Entry 13, 4-(isopropoxy(3′,4′-dimethoxy-[1,1′-biphenyl]-4-yl)methyl)pyridine] | – | 210 | 10
COc1ccc(-c2ccc(C(OC)c3ccncc3)cc2)cc1OC (stereo not drawn) [Entry 15, 4-(methoxy(3′,4′-dimethoxy-[1,1′-biphenyl]-4-yl)methyl)pyridine] | – | 180 | 11
COc1cc(F)ccc1-c1ccc(C(c2ccncc2)N2CCOCC2)cc1 (stereo not drawn) [Entry 17, 4-((4′-fluoro-2′-methoxy-[1,1′-biphenyl]-4-yl)(pyridin-4-yl)methyl)morpholine] | ≥ 10000 | ≥ 10000 | 28
COc1cc(F)ccc1-c1ccc(C(c2ccncc2)N2CCCCC2)cc1 (stereo not drawn) [Entry 18, 4-((4′-fluoro-2′-methoxy-[1,1′-biphenyl]-4-yl)(piperidin-1-yl)methyl)pyridine] | ≥ 10000 | ≥ 10000 | 770
COc1cc(F)ccc1-c1ccc(C(c2ccncc2)N2CCN(C)CC2)cc1 (stereo not drawn) [Entry 20, 1-((4′-fluoro-2′-methoxy-[1,1′-biphenyl]-4-yl)(pyridin-4-yl)methyl)-4-methylpiperazine] | ≥ 10000 | ≥ 10000 | 107
COc1cc(F)ccc1-c1ccc(C(c2ccncc2)N2CCN(C3CCCC3)CC2)cc1 (stereo not drawn) [Entry 21, 1-cyclopentyl-4-((4′-fluoro-2′-methoxy-[1,1′-biphenyl]-4-yl)(pyridin-4-yl)methyl)piperazine] | ≥ 10000 | ≥ 10000 | 900

The remaining lines, values ahead:

IC50 (recombinant CYP-11) [nM] | IC50 (recombinant CYP-21) [nM] | IC50 (recombinant CYP-17) [nM] | Compound
≥ 10000 | 236 | 2200 | COc1cc(F)ccc1-c1ccc(C(F)(F)c2ccncc2)cc1 [Entry 2, 4-[Difluoro-(4′-fluoro-2′-methoxy-biphenyl-4-yl)-methyl]-pyridine]
2000 | 820 | – | COc1cc(F)ccc1-c1ccc(C2(c3ccncc3)OCCO2)cc1 [Entry 3, 4-[2-(4′-Fluoro-2′-methoxy-biphenyl-4-yl)-[1,3]dioxolan-2-yl]-pyridine]
≥ 10000 | 320 | – | COc1cc(F)ccc1-c1ccc(C2(c3ccncc3)OCCO2)cc1 [Entry 4, 4-[2-(4′-Fluoro-2′-methoxy-biphenyl-4-yl)-[1,3]dioxolan-2-yl]-pyridine]
– | 2500 | 10 | COc1ccc(-c2ccc(C(c3ccncc3)N3CCCC3)cc2)cc1OC (stereo not drawn) [Entry 11, 4-((3′4′-dimethoxy-[1,1′-biphenyl]-4-yl)(pyrrolidin-1-yl)methyl)pyridine]
– | 190 | 26 | CCOC(c1ccncc1)c1ccc(-c2ccc(OC)c(OC)c2)cc1 (stereo not drawn) [Entry 14, 4-(ethoxy(3′,4′-dimethoxy-[1,1′-biphenyl]-4-yl)methyl)pyridine]
1400 | 565 | 23 | COc1ccc(-c2ccc(C3(c4ccncc4)OCCO3)cc2)cc1OC [Entry 16, 4-[2-(3′,4′-dimethoxy-biphenyl-4-yl)-[1,3]dioxolan-2-yl]-pyridine]
≥ 10000 | ≥ 10000 | 254 | COc1cc(F)ccc1-c1ccc(C(c2ccncc2)N2CCCC2)cc1 (stereo not drawn) [Entry 19, 4-((4′-fluoro-2′-methoxy-[1,1′-biphenyl]-4-yl)(pyrrolidin-1-yl)methyl)pyridine]
